According to ChEMBL document CHEMBL1201862, “PubChem BioAssay data set” (2004):
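Step 1: Grow cells in 96-well plates. Step 2: Expose to compound for 48 hours at 5 concentrations. Step 3: Interpolate endpoints linearly; if unreached, use highest concentration. Here, GI50 denotes the concentration required for 50% inhibition of growth.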 Active and inactive are the calls of the source. Rule as the data show it: active = GI50 up to about 1.1 µM and inactive = higher. Where a SMILES comes first, the peptide text is derived from it. [ ]: non-standard residue; d: D form. The star is where a group is joined. Phe(4-NO2) = N[CH](Cc1ccc([N+](=O)[O-])cc1)C(=O)O; Boc = CC(C)(C)OC(=O)*; OtBu = CC(C)(C)O*

Tests used:
Test in all cases: NCI anticancer screen, dose series, 48 h
DLD-1 = system: DLD-1
HOP-18 = system: HOP-18
DMS-273 = system: DMS-273
KM-20L2 = system: KM-20L2
XF498 = system: XF498
BT-549 = system: BT-549
T47D = system: T47D
Hs-578T = system: Hs-578T

| SMILES | GI50 (DLD-1) | GI50 (HOP-18) | GI50 (DMS-273) | GI50 (KM-20L2) | GI50 (XF498) | GI50 (BT-549) | GI50 (T47D) | GI50 (Hs-578T) |
| --- | --- | --- | --- | --- | --- | --- | --- | --- |
| O=C(O)c1ccc(C2=Cc3cc(Cl)ccc3OC2)cc1 | > 100 µM (inactive) | 55.1 µM (inactive) | > 100 µM (inactive) | > 100 µM (inactive) | > 100 µM (inactive) |  |  |  |
| S=C(Nc1ccc(/N=N/c2ccccc2)cc1)SCc1ccccc1 |  |  |  |  |  | 18.3 µM (inactive) | 28.3 µM (inactive) | 22.2 µM (inactive) |
| CC(C)(C)c1cc(C(=O)O)c2c(c1)C(=O)OC2(c1ccccc1)c1ccccc1C(=O)O (stereo not given) | > 100 µM (inactive) | > 100 µM (inactive) | > 100 µM (inactive) | > 100 µM (inactive) | > 100 µM (inactive) |  |  |  |
| O=C1c2ccccc2N2OC3C4CCC(C4)C3C12c1ccccc1 (stereo not given) | 18.3 µM (inactive) | > 100 µM (inactive) | 39.6 µM (inactive) | 98.2 µM (inactive) |  |  |  |  |
| C=C(C)C1CC/C(C)=C/CCC2(C)OC2CC/C(CO)=C\C1O (stereo not given) |  |  |  |  |  |  | > 100 µM (inactive) | 15.7 µM (inactive) |
| COc1ccc(/C=N/N=C(\N)NO)c(O)c1 |  |  |  |  |  | > 10 µM (inactive) | > 10 µM (inactive) | > 10 µM (inactive) |
| CC1(C)OC(=O)C(C#N)=C1C[n+]1ccccc1 |  |  |  |  |  |  | > 10 µM (inactive) | > 10 µM (inactive) |
| Cc1cn(S(=O)(=O)c2ccccc2)c2c(OCc3ccccc3)cc(NS(C)(=O)=O)cc12 |  |  |  |  |  | 27.6 µM (inactive) | 4.72 µM (inactive) | 39.5 µM (inactive) |
| COC(=O)C1=C(C(=O)NNc2ccccc2)N(c2cccnc2Cl)C(c2ccccc2)=CC1c1ccccc1 (stereo not given) |  |  |  |  |  | 56.8 µM (inactive) | 26.1 µM (inactive) | > 100 µM (inactive) |
| O=P(O)(O)C(NCC(O)CN1CCOCC1)P(=O)(O)O (stereo not given) |  |  |  |  |  | > 100 µM (inactive) |  | 10.2 µM (inactive) |
| CC(=O)OCC1OC(N2C(=O)CC(N)=Nc3ccccc32)C(OC(C)=O)C(OC(C)=O)C1OC(C)=O (stereo not given) |  |  |  |  |  | 66.2 µM (inactive) | 20.5 µM (inactive) | > 100 µM (inactive) |
| CC(C)/C(Cl)=N/OC(=O)Nc1ccc(Br)cc1 |  |  |  |  |  | 4.29 µM (inactive) | 2.67 µM (inactive) | 21.7 µM (inactive) |
| CCOC(=O)C1Cc2ccc(C)cc2C1=O (stereo not given) |  |  |  |  |  |  | > 100 µM (inactive) | > 100 µM (inactive) |
| COc1ccc(NC(=O)Oc2cc(C)c3ccc(=O)cc-3o2)c(OC)c1.COc1ccc(NC(=O)Oc2ccc3c(C)cc(=O)oc3c2)c(OC)c1 |  |  |  |  |  |  | > 100 µM (inactive) | > 100 µM (inactive) |
| O=C1C2C=CC(C2)C(c2ccc(O)cc2)N1O (stereo not given) | > 100 µM (inactive) |  |  | > 100 µM (inactive) | > 100 µM (inactive) |  |  |  |
| O=C(Nc1ccc(Cl)cc1Cl)c1cc2nc3ccccc3c(=O)n2c2ccccc12 |  |  |  |  |  | > 10 µM (inactive) | > 10 µM (inactive) | > 10 µM (inactive) |

| SMILES | GI50 (DLD-1) | GI50 (HOP-18) | GI50 (DMS-273) | GI50 (KM-20L2) | GI50 (XF498) | GI50 (BT-549) | GI50 (T47D) | GI50 (Hs-578T) |
| --- | --- | --- | --- | --- | --- | --- | --- | --- |
| O=C(O)c1ccc(OCc2nc3cc(C(F)(F)F)ccc3nc2-c2ccccc2)cc1 |  |  |  |  |  | 75.3 µM (inactive) | 50.7 µM (inactive) | 43.5 µM (inactive) |
| C=CCSC1=N/C(=C\c2ccc(C)cc2)C(=O)N1CC=C |  |  |  |  |  | 23.6 µM (inactive) | 25.9 µM (inactive) | 54.8 µM (inactive) |
| C=CCc1ccccc1CC1(OCC)OC(=O)c2ccccc21 (stereo not given) |  |  |  |  |  | 96.8 µM (inactive) | 76.9 µM (inactive) | > 100 µM (inactive) |
| COC(=O)C1CCC(=O)N1CN(C(C)=O)c1ccccc1 (stereo not given) |  |  |  |  |  |  | > 100 µM (inactive) | > 100 µM (inactive) |
| CN1Cc2ccccc2/C=C\c2ccccc21 |  |  |  |  |  | 70 µM (inactive) | 50.5 µM (inactive) | 44.8 µM (inactive) |
| CN1C(=O)CC2CCC(=O)N2c2cccnc21 (stereo not given) |  |  |  |  |  | > 100 µM (inactive) | > 100 µM (inactive) | > 100 µM (inactive) |
| Cc1n[nH]c(=O)n1C1CCCC1 |  |  |  |  |  | > 100 µM (inactive) | > 100 µM (inactive) | > 100 µM (inactive) |
| COC(=O)[C@@]12C3=NO[C@]1(C(=O)OC)C(O[Si](C)(C)C(C)(C)C)[C@H]1OC(C)(C)O[C@H]1[C@@H]2C(OCc1ccccc1)CC3 (stereo not given in full) | 85.1 µM (inactive) | > 100 µM (inactive) | 52 µM (inactive) | 71.1 µM (inactive) |  |  |  |  |
| CC(=O)C1C(=O)C(=O)N(c2cccc([N+](=O)[O-])c2)C1=O (stereo not given) |  |  |  |  |  | > 100 µM (inactive) |  | > 100 µM (inactive) |
| O=c1cc(C(F)(F)F)c2cc3c(cc2o1)NCCC3 |  |  |  |  |  | > 100 µM (inactive) | 9.46 µM (inactive) | 18.5 µM (inactive) |
| Cc1[nH]n(-c2ccc(S(=O)(=O)O)cc2)c(=O)c1/N=N/c1ccccc1 |  |  |  |  |  | > 100 µM (inactive) | > 100 µM (inactive) | > 100 µM (inactive) |
| CC(C)(C)OC(=O)Nc1nnc(S(N)(=O)=O)s1 |  |  |  |  |  | > 100 µM (inactive) | > 100 µM (inactive) | > 100 µM (inactive) |
| O=C1c2ccccc2-c2oc(=O)c3ccccc3c21 |  |  |  |  |  |  | > 100 µM (inactive) | > 100 µM (inactive) |
| COC(=O)C(Cc1ccc([N+](=O)[O-])cc1)NC(=O)C(CC(=O)OC(C)(C)C)NC(=O)OC(C)(C)C (stereo not given) (Boc-Asp(OtBu)-[Phe(4-NO2)]-OMe; configuration not given here) |  |  |  |  |  | > 100 µM (inactive) | > 100 µM (inactive) | 20.1 µM (inactive) |
| CCCCCCCCCCCCCC(=O)O[C@H]1CC[C@H](NC(=O)[C@H](OC)[C@H](O)[C@@H](O)[C@H](O)/C=C/C(C)C)C(=O)NC1 [BENGAMIDE A] |  | > 10 µM (inactive) | 0.00512 µM (active) | 0.0045 µM (active) | 0.0147 µM (active) | 0.953 µM (active) | 0.01 µM (active) | 0.237 µM (active) |
